According to the NIST ThermoML archive (doi:10.1016/j.jct.2004.07.015):

Experiments:
[1] = 101.33 kPa, Liquid
[2] = xn = mol fraction of the nth substance listed; conditions: 101.3 kPa, Liquid

CC(C)CO [2-methyl-1-propanol]
[1]
Conditions | mass density [kg/m3] | speed of sound [m/s]
298.15 K | 797.83 | 1188.5
313.15 K | 785.96 | 1138.4

C1COCO1 [1,3-dioxolane] + CC(C)(C)O
[2]
Conditions | mass density, 298.15 K [kg/m3] | mass density, 313.15 K [kg/m3] | speed of sound, 298.15 K [m/s] | speed of sound, 313.15 K [m/s]
x1 = 0.0495 | 789.79 | – | 1129.2 | –
x1 = 0.0567 | – | 775.49 | – | 1065.2
x1 = 0.0949 | – | 782.77 | – | 1071.1
x1 = 0.0965 | 798.83 | – | 1135.6 | –
x1 = 0.1973 | – | 803.78 | – | 1087.4
x1 = 0.1996 | 820.33 | – | 1151 | –
x1 = 0.2909 | 840.96 | – | 1165.8 | –
x1 = 0.2919 | – | 824.8 | – | 1103.5
x1 = 0.4039 | – | 851.81 | – | 1123.4
x1 = 0.4049 | 868.7 | – | 1186.2 | –
x1 = 0.4951 | – | 875.4 | – | 1141.2
x1 = 0.4972 | 892.83 | – | 1204.9 | –
x1 = 0.5948 | – | 903.12 | – | 1162.4
x1 = 0.5974 | 920.82 | – | 1226.8 | –
x1 = 0.6997 | – | 934.45 | – | 1187.1
x1 = 0.7033 | 952.73 | – | 1252.5 | –
x1 = 0.8031 | – | 967.86 | – | 1213.5
x1 = 0.8033 | 985.46 | – | 1279.3 | –
x1 = 0.8944 | 1017.75 | – | 1305.9 | –
x1 = 0.8959 | – | 1000.17 | – | 1239.6
x1 = 0.9439 | 1036.49 | – | 1321.3 | –
x1 = 0.9464 | – | 1018.99 | – | 1254.3

C1COCCO1 [1,4-dioxane] + CC(C)(C)O
[2]
Conditions | mass density, 298.15 K [kg/m3] | mass density, 313.15 K [kg/m3] | speed of sound, 298.15 K [m/s] | speed of sound, 313.15 K [m/s]
x1 = 0.0502 | 791.11 | – | 1133.5 | –
x1 = 0.0525 | – | 776.05 | – | 1069.8
x1 = 0.0802 | 797.29 | – | 1139.5 | –
x1 = 0.0886 | – | 783.75 | – | 1078.1
x1 = 0.2051 | – | 808.89 | – | 1102.3
x1 = 0.2164 | 826.41 | – | 1166.2 | –
x1 = 0.287 | – | 827.2 | – | 1118.9
x1 = 0.2915 | 843.19 | – | 1180.4 | –
x1 = 0.3926 | – | 851.46 | – | 1139.9
x1 = 0.3944 | 867.16 | – | 1201.4 | –
x1 = 0.4938 | – | 875.49 | – | 1160.8
x1 = 0.496 | 891.65 | – | 1222.4 | –
x1 = 0.592 | – | 899.61 | – | 1181.6
x1 = 0.5929 | 915.92 | – | 1243.8 | –
x1 = 0.6814 | 938.8 | – | 1264.1 | –
x1 = 0.6904 | – | 924.78 | – | 1202.7
x1 = 0.7994 | – | 953.91 | – | 1227.9
x1 = 0.8029 | 971.23 | – | 1293.2 | –
x1 = 0.8871 | – | 978.21 | – | 1250.3
x1 = 0.8893 | 995.28 | – | 1315.3 | –
x1 = 0.9287 | 1006.7 | – | 1325.5 | –
x1 = 0.9421 | – | 993.91 | – | 1264.2

C1COCO1 [1,3-dioxolane]
[1]
Conditions | mass density [kg/m3] | speed of sound [m/s]
298.15 K | 1058.98 | 1340.2
313.15 K | 1040 | 1270.9
